System: B16 tumors
Experiment: Example 3: topical PEP005 with DC+IL-2 and M720/B16, larger primary B16 tumors
Assay type: in vivo, C57BL/6 mice
Conditions: topical dose printed 15 μg/ml, tumors 26-30 mm^2
Source text: To determine whether PEP005 treatment could synergize with (i) vaccine-induced anti-cancer CD4 T-cells/antibodies and/or (ii) vaccine-induced anti-cancer CD8^+ T-cells, topical PEP005 treatment was combined with vaccination using (i) B16 lysate emulsified in Montanide ISA 720 adjuvant (M720/B16) and (ii) DC2.4 cells sensitized with TRP-2 peptide, SVYDFFVWL [SEQ ID NO:1] and activated with LPS (DC). The latter group also received IL-2 to maintain the vaccine induced T-cells. […] This experiment sought to determine whether improvements in B16 cure rate could be achieved when sub-optimal topical PEP005 treatment was combined with other immune-based therapies. This experiment differed from that described in Example 2 in that treatment was initiated when tumors were slightly larger and the M720/B16 vaccine was given d0 not d−5, and the dose of B16 cells in that vaccine was increased 10-fold.
B16 tumors were injected 2×10^6 s.c. into C57BL/6 mice on d−3 and on dO when the tumors had reached an average size of 26-30 mm^2, the groups of animal received the following treatments. […]
PEP005+DCAL-2: PEP005 (as above) plus DC2.4 cells which were (i) sensitized with TRP-2 peptide, SVYDFFVWL [SEQ ID NO:1] […]

## C/C=C(/C)C(=O)O[C@H]1C(C)=C[C@]23C(=O)[C@@H](C=C(CO)[C@@H](O)[C@]12O)[C@H]1[C@@H](C[C@H]3C)C1(C)C [PEP005, ingenol-3-angelate]
  cure of B16 tumors by topical PEP005 alone: did not cure most B16 tumors
